Test results reported in patent US5055487A, “Novel anti-fungal compounds” (Merck & Co., Inc., priority 1990, dated 1991).
≈ marks a conversion by molar mass, not a printed value.

Legend:
Assay type in all cases: cell-based
[1] = test system: Coch. miyabeanus MF4626; experiment: Inhibitor dilution assay in microtiter format, filamentous fungi: Coch. miyabeanus MF4626; settings: Bipolaris oryzae, MF4626, 42 h, read-out: Minimum Inhibitory Concentration
Procedure: (§1) The compounds are particularly active towards filamentous fungi and yeasts including Candida albicans and Crypt. neoformans. The sensitivity of filamentous fungi and yeast was determined using inhibitor dilution assays in microtiter format. The compounds were dissolved in DMSO at 2 mg/ml and serially diluted in 0.1 M phosphate buffer, pH 7.0 in the microtiter dish from 100 to 0.006 μg/ml. A standardized spore suspension for testing the filamentous fungi was prepared by inoculating Antibiotic Medium #3 containing 1.5% agar with spores such that 1.5×10^3 colony forming units were added per we11. The microtiter wells were filled with 50 μl of buffer containing compound and 50 μl of inoculated medium. The sensitivity of yeasts was determined by inoculating yeast nitrogen base containing 1% dextrose (YNB/G) with aliquots of an overnight yeast culture grown in Yeast Morphology (YM) media at 35° C. and diluting in YNB/G to yield a final concentration of 1.5-7.5×10^3 colony forming units/well. One hundred fifty μl of inoculated media was added per well. To test the sensitivity of yeast, compound was solubilized in 10 percent aqueous DMSO at 2.56 mg/ml. The compound was diluted serially in YNB/G from 128 to 0.06 μg/ml. The wells were filled with 150 μl of drug containing media. […]

[2] = test system: C. tropialis MY1012; experiment: Minimum fungicidal concentration, yeast: C. tropialis MY1012; settings: no growth or no more than three colonies
Procedure: as §1

[3] = test system: C. parapsilosis MY1010; experiment: Inhibitor dilution assay in microtiter format, yeast MIC: C. parapsilosis MY1010; settings: Lodderomyces parapsilosis; C. parapsilosis MY1010, 24 to 48 hours, 35° C.; read-out: Minimum Inhibitory Concentration
Procedure: as §1

[4] = test system: Pen. italicum MF2819; experiment: Inhibitor dilution assay in microtiter format, filamentous fungi: Pen. italicum MF2819; settings: Penicillium italicum; Pen. italicum MF2819, 42 hours, 28° C.; read-out: Minimum Inhibitory Concentration
Procedure: as §1

[5] = test system: A. niger MF442; experiment: Inhibitor dilution assay in microtiter format, filamentous fungi: A. niger MF442; settings: Aspergillus niger; A. niger MF442, 42 hours, 28° C.; read-out: Minimum Inhibitory Concentration
Procedure: as §1

[6] = test system: C. albicans MY1055; experiment: Inhibitor dilution assay in microtiter format, yeast MIC: C. albicans MY1055; settings: Candida albicans; C. albicans MY1055, 24 to 48 hours, 35° C.; read-out: Minimum Inhibitory Concentration
Procedure: as §1

[7] = test system: A. flavus MF383; experiment: Inhibitor dilution assay in microtiter format, filamentous fungi: A. flavus MF383; settings: Aspergillus flavus; A. flavus MF383, 42 hours, 28° C.; read-out: Minimum Inhibitory Concentration
Procedure: as §1

[8] = test system: Fus. oxysproum MF4014; experiment: Inhibitor dilution assay in microtiter format, filamentous fungi: Fus. oxysproum MF4014; settings: Fus. oxysproum MF4014, 42 hours, 28° C.; read-out: Minimum Inhibitory Concentration
Procedure: as §1

[9] = test system: Crypt. neoformans MY1051; experiment: Minimum fungicidal concentration, yeast: Crypt. neoformans MY1051; settings: Cryptococcus neoformans, no growth or no more than three colonies
Procedure: as §1

[10] = test system: C. tropicalis MY1012; experiment: Inhibitor dilution assay in microtiter format, yeast MIC: C. tropicalis MY1012; settings: Candida tropicalis; C. tropicalis MY1012, 24 to 48 hours, 35° C.; read-out: Minimum Inhibitory Concentration
Procedure: as §1

[11] = test system: C. albicans MY1055; experiment: Minimum fungicidal concentration, yeast: C. albicans MY1055; settings: Candida albicans, no growth or no more than three colonies
Procedure: as §1

[12] = test system: C. parasilosos MY1010; experiment: Minimum fungicidal concentration, yeast: C. parasilosos MY1010; settings: no growth or no more than three colonies
Procedure: as §1

[13] = test system: Crypt. neoformans MY1051; experiment: Inhibitor dilution assay in microtiter format, yeast MIC: Crypt. neoformans MY1051; settings: Cryptococcus neoformans; Crypt. neoformans MY1051, 24 to 48 hours, 35° C.; read-out: Minimum Inhibitory Concentration
Procedure: as §1

[14] = test system: A. fumigatus MF4839; experiment: Inhibitor dilution assay in microtiter format, filamentous fungi: A. fumigatus MF4839; settings: Aspergillus fumigatus; A. fumigatus MF4839, 42 hours, 28° C.; read-out: Minimum Inhibitory Concentration
Procedure: as §1

[15] = test system: T. Mentagrophytes MF4864; experiment: Inhibitor dilution assay in microtiter format, filamentous fungi: T. Mentagrophytes MF4864; settings: Trichophyton mentagrophytes; T. Mentagrophytes MF4864, 42 hours, 28° C.; read-out: Minimum Inhibitory Concentration
Procedure: as §1

| MIC [15] [µg/mL] | SMILES | MIC [1] [µg/mL] | MFC [2] [µg/mL] | MIC [3] [µg/mL] | MIC [4] [µg/mL] | MIC [5] [µg/mL] | MIC [6] [µg/mL] | MIC [7] [µg/mL] | MIC [8] [µg/mL] | MFC [9] [µg/mL] | MIC [10] [µg/mL] | MFC [11] [µg/mL] | MFC [12] [µg/mL] | MIC [13] [µg/mL] | MIC [14] [µg/mL] |
| --- | --- | --- | --- | --- | --- | --- | --- | --- | --- | --- | --- | --- | --- | --- | --- |
|  | CC=CCCCCC=CCCCCC(=O)OC1C(O)C2(CCC(C)C(O)C(C)CC=Cc3ccccc3)OC(C(=O)O)C(O)(C(=O)O)C1(C(=O)O)O2 (stereo not shown) [Compound A] | 1.6 (≈ 2.19 µM) | 1 (≈ 1.37 µM) | 4 (≈ 5.47 µM) | 0.025 (≈ 0.0342 µM) | 100 (≈ 137 µM) | 8 (≈ 10.9 µM) | 0.098 (≈ 0.134 µM) | > 100 | 2 (≈ 2.74 µM) | 4 (≈ 5.47 µM) | 4 (≈ 5.47 µM) | 1 (≈ 1.37 µM) | 4 (≈ 5.47 µM) | 0.098 (≈ 0.134 µM) |
| > 128 | CC=CCCCCC=CCCCCC(=O)OC1C(O)C2(CCC(C)C(O)C(C)CC=Cc3ccccc3)OC(C(=O)OC)C(O)(C(=O)OC)C1(C(=O)OC)O2 (stereo not shown) [Compound B] |  | > 128 | > 128 |  |  | > 128 | > 128 |  | > 128 | > 128 | > 128 | > 128 | > 128 | > 128 |
